Patent US8076073B2, “Cholesterol and hedgehog signaling” (The Johns Hopkins University School of Medicine, priority 1998, dated 2011)
“Also recorded” adds a separate entry of the source.

Key:
[1] = test system: enzymes of cholesterol biosynthesis; settings: cited from earlier work
[2] = test system: pregnant rats; settings: treatment of pregnant rats; cited from earlier work
[3] = test system: 7-dehydrocholesterol reductase; settings: cited from earlier work
[4] = test system: mice; settings: mice with hypomorphic apoB mutation (truncated apoB, reduced cholesterol levels); cited from earlier work
[5] = molecular target: T1, Hh protein (Drosophila melanogaster, UniProt Q02936); settings: relatively low concentrations; nucleophile in the second step; cited from earlier work
T1 construct: made in house
T1 sequence (Q02936 1-471): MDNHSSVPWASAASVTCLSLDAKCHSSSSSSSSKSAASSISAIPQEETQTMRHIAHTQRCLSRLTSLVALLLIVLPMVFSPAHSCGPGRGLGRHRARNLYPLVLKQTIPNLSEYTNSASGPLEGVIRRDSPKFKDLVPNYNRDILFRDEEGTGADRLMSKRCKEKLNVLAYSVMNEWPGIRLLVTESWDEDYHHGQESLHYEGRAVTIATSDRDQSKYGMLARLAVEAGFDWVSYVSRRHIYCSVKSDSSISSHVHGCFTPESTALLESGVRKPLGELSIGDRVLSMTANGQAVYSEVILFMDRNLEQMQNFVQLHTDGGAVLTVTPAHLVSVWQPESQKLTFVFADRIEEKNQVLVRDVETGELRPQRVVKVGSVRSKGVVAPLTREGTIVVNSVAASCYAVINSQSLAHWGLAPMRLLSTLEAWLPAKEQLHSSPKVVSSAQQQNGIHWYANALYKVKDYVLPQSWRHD

[6] = test system: pregnant ewes / newborn lambs; settings: grazing by pregnant ewes; cited from earlier work
[7] = test system: COS7 cells; assay: Jervine inhibition of cholesterol biosynthesis, [3H]-mevalonic acid labelling and HPLC sterol analysis; assay type: cell-based; set-up: radiolabelled cholesterol levels / another radiolabelled sterol, tentatively identified as zymosterol: dose or concentration left out as unconfirmed
Description: Given the structural similarities of these compounds to cholesterol and the similar teratogenic effects of cholesterol synthesis inhibitors upon the offspring of pregnant rats, a reasonable mechanism to consider for the effects of these plant sterol derivatives was the inhibition of cholesterol biosynthesis. Accordingly, we tested COS7 cultured cells treated with jervine for defects in cholesterol biosynthesis by labelling with [3H]-mevalonic acid and then extracting and analyzing radiolabelled, non-saponifiable lipids. […] Given the similarities in their teratogenic effects, this inhibition seems likely to underlie the teratogenic effects of both the synthetic and natural compounds.
Given the structural similarities of these compounds to cholesterol and the similar teratogenic effects of cholesterol synthesis inhibitors upon the offspring of pregnant rats, a reasonable mechanism to consider for the effects of these plant sterol derivatives was the inhibition of cholesterol biosynthesis. Accordingly, COS7 cultured cells treated with jervine were tested for defects in cholesterol biosynthesis by labelling with [3H]-mevalonic acid and then extracting and analyzing radiolabelled, non-saponifiable lipids. Metabolic labeling and sterol analysis was essentially as described (Popjak et al. J. Biol. Chem. 264: 630-6238.1989; Rilling et al. 1993 Arch. Biochem. Biophys. 301: 210-215.), with minor modifications. Briefly, COS-7 cells were plated at ˜35% confluence into two 60 mm dishes at 37° C. in 4 ml each of Dulbecco's modified Eagle's medium (DMEM) supplemented with 10% fetal bovine serum (FBS). After 24 hr of growth the medium in each dish was replaced with 2 ml fresh medium with 10% FBS; [^3H]-mevalonic acid (NEN #NET 176) brought to a specific activity of 0.8 Ci/mmol in a 1% solution of bovine serum albumin was added to this medium to a final concentration of […]. At this time, one dish received […] of a 4 mg/ml solution of jervine in ethanol (final concentration […] jervine), and the other received […] of ethanol. […]

[8] = COS7 cells labelled with [3H]-mevalonic acid, 24 hr, jervine (b16 and b71 print 28=|M), versus ethanol control

Compound	sterol precursor abnormally accumulated [1]	induction of HPE-like malformations [2]	inhibition of 7-dehydrocholesterol reductase [3]	congenital craniofacial malformations in newborn lambs [6]	further results
Cl.Cl.Clc1ccccc1CNCC1CCC(CNCc2ccccc2Cl)CC1 (stereo not drawn) [AY 9944R]	7-dehydrocholesterol	HPE-like malformations can be induced	inhibited	–	–
O=C(O)c1ccc(CCN2CCN(C/C=C/c3ccc(Cl)cc3)CC2)cc1 [BM 15.766]	7-dehydrocholesterol	HPE-like malformations can be induced	inhibited	–	teratogenesis, resulting defects [4]: severe holoprosencephaly
CC(C)CCC[C@@H](C)[C@H]1CC[C@H]2[C@@H]3CC=C4C[C@@H](O)CC[C@]4(C)[C@H]3CC[C@]12C [Cholesterol, cholesterol]	–	–	–	–	effect on in vitro autoprocessing reaction [5]: stimulates
CCN(CC)CCOc1ccc(C(O)(Cc2ccc(Cl)cc2)c2ccc(C)cc2)cc1 (stereo not drawn) [Triparanol]	desmosterol	HPE-like malformations can be induced	–	–	–
CC1=C2C[C@H]3[C@@H](CC=C4C[C@@H](O)CC[C@@]43C)[C@@H]2CC[C@]12O[C@@H]1C[C@H](C)CN[C@H]1[C@H]2C [cyclopamine]	–	–	–	responsible	–
CC1=C2C(=O)[C@H]3[C@@H](CC=C4C[C@@H](O)CC[C@@]43C)[C@@H]2CC[C@]12O[C@@H]1C[C@H](C)CN[C@H]1[C@H]2C [jervine]	–	–	–	responsible	another radiolabelled sterol, tentatively identified as zymosterol [7, 8]: found to accumulate; also recorded: increased levels; radiolabelled cholesterol levels [7, 8]: reduced levels; inhibition of cholesterol biosynthesis in cultured cells ([7]; COS7 cells, jervine at these concentrations): inhibits cholesterol biosynthesis
